# Test results from patent US20240059703A1 (AMGEN INC., priority 2021, published 2024).
# Target: KRAS G12C (Homo sapiens (Human), UniProt P01116, C118A/G12C)
# Test: 2 h coupled exchange assay
# Type: biochemical
# Settings: Avg 2 h Coupled exchange IC50, 2 h compound pre-incubation
# Experimental: The term “2 h coupled exchange assay” or “20 h coupled exchange assay” as used herein refers to the assay described in the Section entitled “BIOLOGICAL EVALUATION.”
# Sequence of KRAS G12C (P01116 other isoform, or with tags, fused parts or gaps G12C/C118A): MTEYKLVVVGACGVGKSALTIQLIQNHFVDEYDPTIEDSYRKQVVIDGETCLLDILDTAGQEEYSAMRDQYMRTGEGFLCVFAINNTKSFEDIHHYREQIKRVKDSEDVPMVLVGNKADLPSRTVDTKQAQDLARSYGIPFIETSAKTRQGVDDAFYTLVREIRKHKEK
row,IC50 [µM],Structure (SMILES)
1,0.781,"C=CC(=O)N1CC2(CCN(c3nc4c(c(-c5c(C)ccc6cnn(C)c56)c3F)COC(C)(C)C4)C2)C1 [Example 14-71, 1-(6-(4-(1,6-dimethyl-1H-indazol-7-yl)-3-fluoro-7,7-dimethyl-7,8-dihydro-5H-pyrano[4,3-b]pyridin-2-yl)-2,6-diazaspiro[3.4]octan-2-yl)-2-propen-1-one]"
2,0.487,"Cc1ccc2[nH]ncc2c1-c1c(C#N)c(N2CCC3(CN(C(=O)/C=C/COC(F)F)C3)C2)nc2c1CCC(C)(C)C2 [Example 30-1, 2-(2-((2E)-4-(difluoromethoxy)-2-butenoyl)-2,6-diazaspiro[3.4]octan-6-yl)-7,7-dimethyl-4-(5-methyl-1H-indazol-4-yl)-5,6,7,8-tetrahydro-3-quinolinecarbonitrile]"
3,17,"C=CC(=O)N1CC2(CCN(c3nc4c(c(-c5cc(O)cc6ccccc56)c3F)COC(C)(C)C4)C2)C1 (single isomer, unassigned) [Example 14-69, (M)-1-(6-(3-fluoro-4-(3-hydroxy-1-naphthalenyl)-7,7-dimethyl-7,8-dihydro-5H-pyrano[4,3-b]pyridin-2-yl)-2,6-diazaspiro[3.4]octan-2-yl)-2-propen-1-one]"
4,5.76,"C=CC(=O)N1CC2(CCN(c3nc4c(c(-c5c(C)ccc6cn[nH]c56)c3C#N)COC(C)(C)C4)C2)C1 (single isomer, unassigned) [Example 14-82, (M)-7,7-dimethyl-4-(6-methyl-1H-indazol-7-yl)-2-(2-(2-propenoyl)-2,6-diazaspiro[3.4]octan-6-yl)-7,8-dihydro-5H-pyrano[4,3-b]pyridine-3-carbonitrile]"

# Same assay, conditions: Avg 2 h Coupled exchange IC50, 2 h compound pre-incubation, SOS-mediated nucleotide exchange
row,IC50 [µM],Structure (SMILES)
1,11,"C=CC(=O)N1CC2(CCN(c3nc4c(c(-c5cc(O)cc(Cl)c5C)c3C)COC(C)(C)C4)C2)C1 (single isomer, unassigned) [Example 12-44, (P)-1-(6-(4-(3-chloro-5-hydroxy-2-methylphenyl)-3,7,7-trimethyl-7,8-dihydro-5H-pyrano[4,3-b]pyridin-2-yl)-2,6-diazaspiro[3.4]octan-2-yl)prop-2-en-1-one]"
2,6.88,"C=CC(=O)N1CC2(CCN(c3nc4c(c(-c5c(C)ccc6cn[nH]c56)c3C)CCC(C)(C)C4)C2)C1 (single isomer, unassigned) [Example 2-25, (M)-1-(6-(3,7,7-trimethyl-4-(6-methyl-1H-indazol-7-yl)-5,6,7,8-tetrahydro-2-quinolinyl)-2,6-diazaspiro[3.4]octan-2-yl)-2-propen-1-one]"
3,17,"C=CC(=O)N1CC2(CCN(c3nc4c(c(-c5cc(O)c(F)c6ccccc56)c3C#N)CC[C@H]3C[C@@H]43)C2)C1 (single isomer, unassigned) [Example 13-75]"
4,45.5,"C=CC(=O)N1CC2(CCN(c3nc4c(c(-c5cnccc5C)c3C#N)C[C@H]3C[C@@H]4C3(C)C)C2)C1 (single isomer, unassigned) [Example 13-124]"
5,32.2,"C=CC(=O)N1CC2(CCN(c3nc4c(c(-c5c(C)ccc6cnn(C)c56)c3C#N)COC(C)(C)C4)C2)C1 (single isomer, unassigned) [Example 13-59, (M)-4-(1,6-dimethyl-1H-indazol-7-yl)-7,7-dimethyl-2-(2-(2-propenoyl)-2,6-diazaspiro[3.4]octan-6-yl)-7,8-dihydro-5H-pyrano[4,3-b]pyridine-3-carbonitrile]"
6,0.454,"C=CC(=O)N1CC2(CCN(c3nc4c(c(-c5cc(O)ccc5Cl)c3C#N)C[C@H]3C[C@@H]4C3(C)C)C2)C1 (single isomer, unassigned) [Example 2-75]"
7,0.217,"C=CC(=O)N1CC2(CCN(c3nc4c(c(-c5ccnn5C)c3C#N)CC[C@@H](c3ccnn3C)C4)C2)C1 (single isomer, unassigned) [Example 13-29]"
8,0.823,"C=CC(=O)N1CC2(C1)CN(c1cc3ccccc3c(-c3c(C)ccc4[nH]ncc34)c1C#N)C2 [Example 1-34, 1-(5-methyl-1H-indazol-4-yl)-3-(6-(2-propenoyl)-2,6-diazaspiro[3.3]heptan-2-yl)-2-naphthalenecarbonitrile]"
